Measurements as given in patent US20090104167A1, “Prophylactic/Ameliorating Agent for Menopausal Disorder and Functional Beverage/Food” (Calpis Co., Ltd., priority 2005, published 2009).

Experiments:
[1] = target: human estrogen receptor β (Homo sapiens, UniProt Q92731); assay: Inhibition of [3H]estradiol binding to estrogen receptor β; conditions: One millimolar test sample, 0.5 nM tritium-labeled estradiol, 25° C., 2 hours, pH 7.4
Description: (§1) One millimolar of a test sample (pinoresinol diglycoside, pinoresinol and secoisolariciresinol) and 0.5 nM of tritium-labeled estradiol were reacted in 10 mM of tris buffer at pH 7.4 (with 0.1% BSA, 10% Glycerol, 1 mM DTT) containing a human estrogen receptor α or β at 25° C. for 2 hours. After completion of the reaction, the receptor was collected and washed to measure the amount of the tritium-labeled estradiol bound to the receptor according to a conventional method. The binding level of [^3H] Estradiol in the presence of a lignan or a metabolic intermediate was calculated with the binding of 0.5 nM of [^3H] Estradiol to the receptor as 100%, which was subtracted from 100 to define a binding inhibition rate.

[2] = target: T1, human estrogen receptor α (Homo sapiens, UniProt P03372); assay: Inhibition of [3H]estradiol binding to estrogen receptor α; conditions: for binding inhibition rate to estrogen receptor α, inhibition rate (%): One millimolar test sample, 0.5 nM tritium-labeled estradiol, 25° C., 2 hours, pH 7.4
T1 sequence (P03372 1-595): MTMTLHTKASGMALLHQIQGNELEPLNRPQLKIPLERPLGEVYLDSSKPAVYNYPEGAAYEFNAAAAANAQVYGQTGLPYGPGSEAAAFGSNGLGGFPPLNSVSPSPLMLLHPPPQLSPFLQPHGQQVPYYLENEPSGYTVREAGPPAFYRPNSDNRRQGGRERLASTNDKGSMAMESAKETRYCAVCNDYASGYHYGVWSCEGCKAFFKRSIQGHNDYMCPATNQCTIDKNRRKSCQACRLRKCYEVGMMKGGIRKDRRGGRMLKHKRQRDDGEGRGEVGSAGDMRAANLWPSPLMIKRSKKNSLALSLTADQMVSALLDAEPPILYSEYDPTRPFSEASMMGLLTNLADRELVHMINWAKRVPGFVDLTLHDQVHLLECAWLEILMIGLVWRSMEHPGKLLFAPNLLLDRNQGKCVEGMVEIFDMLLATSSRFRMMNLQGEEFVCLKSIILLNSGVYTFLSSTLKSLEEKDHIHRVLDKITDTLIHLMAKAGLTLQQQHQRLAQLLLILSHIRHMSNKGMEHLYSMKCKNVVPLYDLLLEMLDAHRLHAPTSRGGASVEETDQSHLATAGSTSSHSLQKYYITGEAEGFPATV
Description: as §1

[3] = Lignan-metabolizing ability of microorganisms: conversion of pinoresinol to secoisolariciresinol (HPLC); parameters: key to pinoresinol to secoisolariciresinol: o indicates that the lignan was converted in 50% or more; x indicates that most of the lignan was not converted; conditions: for pinoresinol to secoisolariciresinol: lignan 0.5 mM in MRS or GAM medium, culture at 37° C., HPLC
Description: Lignan-metabolizing abilities of various types of microorganisms were evaluated. The various microorganisms shown in the following Tables 1 to 3 were pre-cultured in MRS medium or GAM medium at 37° C. for 20 to 24 hours, and inoculated at 1 to 3% to 10 ml of MRS medium or GAM medium Du zhong lignan (pinoresinol and medioresinol) was added at a final concentration of 0.5 mM in the medium, and continued to culture at 37° C. Samples were taken at regular intervals and assayed by HPLC to monitor the conversion of lignan to secoisolariciresinol.

human estrogen receptor β, sequence (Q92731 whole entry): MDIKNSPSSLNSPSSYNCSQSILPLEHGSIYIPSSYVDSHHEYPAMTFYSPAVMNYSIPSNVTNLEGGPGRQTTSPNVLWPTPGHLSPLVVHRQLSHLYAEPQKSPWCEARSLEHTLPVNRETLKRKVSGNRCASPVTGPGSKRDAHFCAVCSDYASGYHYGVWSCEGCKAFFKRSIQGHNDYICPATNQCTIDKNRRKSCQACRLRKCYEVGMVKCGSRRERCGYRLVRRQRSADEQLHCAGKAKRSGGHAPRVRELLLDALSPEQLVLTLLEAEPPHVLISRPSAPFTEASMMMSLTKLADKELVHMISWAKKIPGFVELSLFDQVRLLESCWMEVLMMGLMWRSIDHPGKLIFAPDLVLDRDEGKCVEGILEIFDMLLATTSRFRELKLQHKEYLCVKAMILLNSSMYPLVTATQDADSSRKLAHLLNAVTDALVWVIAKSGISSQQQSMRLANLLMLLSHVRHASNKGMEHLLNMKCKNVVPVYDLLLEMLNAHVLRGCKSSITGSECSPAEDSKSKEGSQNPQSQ

| Compound | binding inhibition rate to estrogen receptor β, inhibition rate (%) [1] [%] | binding inhibition rate to estrogen receptor α, inhibition rate (%) [2] [%] | pinoresinol to secoisolariciresinol [3] | further results |
| --- | --- | --- | --- | --- |
| COc1cc([C@H]2OC[C@H]3[C@@H]2CO[C@@H]3c2ccc(O[C@@H]3O[C@H](CO)[C@@H](O)[C@H](O)[C@H]3O)c(OC)c2)ccc1O[C@@H]1O[C@H](CO)[C@@H](O)[C@H](O)[C@H]1O [pinoresinol diglycoside] | 5 | 4 |  |  |
| COc1cc(C[C@@H](CO)[C@H](CO)Cc2ccc(O)c(OC)c2)ccc1O [secoisolariciresinol] | 52 | 43 |  | binding inhibition rate to an estrogen receptor relative to pinoresinol diglycoside ([2]; estrogen receptor subtype not specified, versus pinoresinol diglycoside): ten times higher |
| Bifidobacterium |  |  | x |  |
| Lactobacillus acidophilus |  |  | ∘ | ability to produce secoisolariciresinol from pinoresinol (in words) ([3]; summary of Tables 1 to 3): capable of producing secoisolariciresinol from pinoresinol |
| Lactobacillus plantarum |  |  | x |  |
| Lactobacillus reuteri |  |  | x |  |
| pinoresinol | 30 | 23 |  |  |
